Series [1] concerns monocot embryogenic cell culture. The experiment in a line: Transfer of culture from auxin plus cytokinin medium to medium with cytokinin only. The format is cell-based. Particulars: medium without auxin but maintaining the cytokinin. The procedure:
As known to those of skill in the art, cytokinins, both natural and synthetic, are used to induce shoot formation while inhibiting root formation (Trigiano and Gray, Plant tissue culture concepts and laboratory exercises. Second ed., Boca Raton: CRC Press (2000)).
In one embodiment, the tertiary medium is prepared by adding to sterile water (a) the cytokinin, thidiazuron; (b) sucrose, 30 g/l; (c) Miller's salt solution (6% w/v, KH2 PO4), about 3 ml; and (d) MS salts, 4.3 g/l. In one embodiment the concentration of the thidiazuron is from about 0.01 mg/l to about 1 mg/l. In another embodiment, the concentration of the thidiazuron is about 0.02 mg/l.

Series [2] deals with Arundo donax explants (cross-sectional segments of immature inflorescence). The experiment in a line: Phosphinothricin selection of explants on primary solid culture medium. The format is cell-based. To be noted: 10 mg/L, four weeks selection, FIG. 6A. The procedure: Agrobacterium tumefaciens carrying the plasmid, pMSF3022, was used to transform Arundo donax explants (cross-sectional segments of immature inflorescence). Plasmid pMSF3022 carries the bar gene that confers resistance to phosphinothricin and provides a positive selection and the gfp (green fluorescent protein) gene which provides a visual selection of transformants. Antibiotic resistant transformants were selected for four weeks after gene transfer by incubating the explants on primary solid culture medium with or without phosphinothricin and containing ticarcillin at […] concentration to eliminate residual Agrobacterium. As shown in FIG. 6A control explants (untransformed) were killed by 10 mg/L of phosphinothricin (antibiotic/herbicide). In the absence of the antibiotic/herbicide, the control explants develop embryogenic callus (FIG. 6B). In contrast, the explants that were cocultivated with the A. tumefaciens carrying the plasmid, pMSF3022 (transformed), were able to develop embryogenic callus in the presence of 10 mg/L of phosphinothricin (FIG. 6C).

For `O=C(Nc1ccccc1)Nc1cnns1` [thidiazuron], the “effect on shoot elongation and root formation” value in series [1] is recorded as “not only was shoot elongation promoted but unexpectedly root formation also resulted”.

On to `CP(=O)(O)CC[C@H](N)C(=O)O` [phosphinothricin], for which the “effect on control (untransformed) explants” value in series [2] is “killed”.
